Reference: patent publication US20260372303A1, “5-Fluoro-4-Imino-3-Methyl-1-Tosyl-3, 4-Dihydropyrimidin-2(1H) -One for Fungicide-Resistant Fungus” (priority 2022, published 2026)

How the values were obtained:
Assay type in all cases: in vivo
[1] = test system: Zymoseptoria tritici strain Zt StA; assay: In planta preventive efficacy on wheat cv. Alixan against Zymoseptoria tritici strain Zt StA (control strain, sensitive); settings: for Disease Severity Intensity: % of length of 2nd leaf blade, preventive 24 h; for AUDPC: control 781.6
Description: (§1) A series of experiments were conducted to evaluate the efficacy of flumetylsulforim (ADF-16) for treating different strains of Zymoseptoria tritici in comparison with commercially available fungicides. Table 1 describes the Z. tritici strains used in this study and Table 2 describes the fungicides used in this study.
(§2) Winter wheat plants cv. Alixan (Limagrain) at the BBCH 12 growth stage were treated preventively with sterile distilled water (control), ADF-16, penthiopyrad, metconazole or tebuconazole at the rates described in Table 2 with a hand sprayer at 2 bars.
(§3) After treatment, wheat plants were left to dry at room temperature for 1 hour and then placed in a climatic chamber: temperature of 24 °C day/18 °C night-photoperiod of 16 h light/8 h dark and a relative humidity of 65%.
(§4) Untreated or treated whole wheat plants were inoculated 24-hours post-treatment with a calibrated pycnospore suspension of Z. tritici strains Zt StA, Zt 61, Zt 99, Zt 20, Zt 19-52, and Zt 38-02. Three replicates (pots) of 6 wheat plants each were used for each condition tested.
(§5) After inoculation, pots were transferred in a climatic chamber: temperature of 20 °C day/17 °C night—photoperiod of 16 h light/8 h dark and controlled relative humidity.
(§6) Disease assessments were carried out at 15 days post inoculation (dpi), 21 dpi and 28 dpi by measuring the length of the necrosis on the second leaf blade. The intensity of infection was then determined as a percentage of the total length of 2nd leaf blade.
(§7) The fungicide efficacies were determined from the Area Under the Disease Progress Curve (AUDPC) values and expressed as a percentage of the untreated control.
(§8) The AUDPC is a quantitative measure of disease intensity over time. The most commonly used method for estimating the AUDPC, the trapezoidal method, is performed by multiplying the average disease intensity between each pair of adjacent timepoints by the corresponding time interval and this for each time interval. The AUDPC is determined with the following formula by adding all of the trapezoids:
(§9) [formula] • yi=disease severity at the ith observation • ti=time (days) at the ith observation • N=total number of observations

[2] = test system: Zymoseptoria tritici strain Zt 61; assay: In planta preventive efficacy on wheat cv. Alixan against Zymoseptoria tritici strain Zt 61; design: fungicide efficacy: concentration or dose not given beside the values; settings: for Disease Severity Intensity: % of length of 2nd leaf blade, preventive 24 h; for AUDPC: control 1194.9
Description: as §1, §2, §3, §4, §5, §6, §7, §8, §9

[3] = test system: Zymoseptoria tritici strain Zt 99; assay: In planta preventive efficacy on wheat cv. Alixan against Zymoseptoria tritici strain Zt 99; settings: for Disease Severity Intensity: % of length of 2nd leaf blade, preventive 24 h; for AUDPC: control 1352.9
Description: as §1, §2, §3, §4, §5, §6, §7, §8, §9

[4] = test system: Zymoseptoria tritici strain Zt 19-52; assay: In planta preventive efficacy on wheat cv. Alixan against Zymoseptoria tritici strain Zt 19-52; settings: % of length of 2nd leaf blade, preventive 24 h
Description: as §1, §2, §3, §4, §5, §6, §7, §8, §9

[5] = test system: Zymoseptoria tritici strain Zt 20; assay: In planta preventive efficacy on wheat cv. Alixan against Zymoseptoria tritici strain Zt 20; settings: % of length of 2nd leaf blade, preventive 24 h
Description: as §1, §2, §3, §4, §5, §6, §7, §8, §9

[6] = test system: Zymoseptoria tritici strain Zt 38-02; assay: In planta preventive efficacy on wheat cv. Alixan against Zymoseptoria tritici strain Zt 38-02; settings: for Disease Severity Intensity: % of length of 2nd leaf blade, preventive 24 h; for AUDPC: control 1261.4
Description: as §1, §2, §3, §4, §5, §6, §7, §8, §9

[7] = 15 dpi, rate N (g a.i./ha): ADF-16 100, penthiopyrad 200, metconazole 90, tebuconazole 250, control also no disease
[8] = 15 dpi, rate N/2.5 (g a.i./ha): ADF-16 40, penthiopyrad 80, metconazole 36, tebuconazole 100, control also no disease
[9] = rate N (g a.i./ha): ADF-16 100, penthiopyrad 200, metconazole 90, tebuconazole 250
[10] = rate N/2.5 (g a.i./ha): ADF-16 40, penthiopyrad 80, metconazole 36, tebuconazole 100

CC(C)CC(C)c1sccc1NC(=O)c1cn(C)nc1C(F)(F)F (stereo not drawn) [Penthiopyrad]
Disease Severity Intensity [1, 7]: No disease
Disease Severity Intensity [1, 8]: No disease
Disease Severity Intensity ([1]; 21 dpi, rate N (g a.i./ha): ADF-16 100, penthiopyrad 200, metconazole 90, tebuconazole 250, control 36.5): 0.0 +/− 0.0b %
Disease Severity Intensity ([1]; 21 dpi, rate N/2.5 (g a.i./ha): ADF-16 40, penthiopyrad 80, metconazole 36, tebuconazole 100, control 36.5): 0.0 +/− 0.0b %
Disease Severity Intensity ([1]; 28 dpi, rate N (g a.i./ha): ADF-16 100, penthiopyrad 200, metconazole 90, tebuconazole 250, control 77.4): 0.0 +/− 0.0b %
Disease Severity Intensity ([1]; 28 dpi, rate N/2.5 (g a.i./ha): ADF-16 40, penthiopyrad 80, metconazole 36, tebuconazole 100, control 77.4): 0.0 +/− 0.0b %
Efficacy (from AUDPC, percentage of the untreated control) [1, 9]: 100%
AUDPC [1, 9]: 0.0 +/− 0.0b
Efficacy (from AUDPC, percentage of the untreated control) [1, 10]: 100%
AUDPC [1, 10]: 0.0 +/− 0.0b
Disease Severity Intensity [2, 7]: No disease
Disease Severity Intensity [2, 8]: No disease
Disease Severity Intensity ([2]; 21 dpi, rate N (g a.i./ha): ADF-16 100, penthiopyrad 200, metconazole 90, tebuconazole 250, control 63.3): 1.2 +/− 0.5d %
Disease Severity Intensity ([2]; 21 dpi, rate N/2.5 (g a.i./ha): ADF-16 40, penthiopyrad 80, metconazole 36, tebuconazole 100, control 63.3): 19.9 +/− 3.8b %
Disease Severity Intensity ([2]; 28 dpi, rate N (g a.i./ha): ADF-16 100, penthiopyrad 200, metconazole 90, tebuconazole 250, control 88.1): 18.2 +/− 2.8e %
Disease Severity Intensity ([2]; 28 dpi, rate N/2.5 (g a.i./ha): ADF-16 40, penthiopyrad 80, metconazole 36, tebuconazole 100, control 88.1): 74.3 +/− 2.3b %
fungicide efficacy ([2]; higher application rates (N)): ≥ 85%
fungicide efficacy ([2]; lower application rates (N/2.5)): ≤ 70%
Efficacy (from AUDPC, percentage of the untreated control) [2, 9]: 93.3%
AUDPC [2, 9]: 80.2 ± 9.8 days
Efficacy (from AUDPC, percentage of the untreated control) [2, 10]: 55.0%
AUDPC [2, 10]: 537.9 +/− 53.2b
Disease Severity Intensity ([3]; 15 dpi, rate N (g a.i./ha): ADF-16 100, penthiopyrad 200, metconazole 90, tebuconazole 250, control 47.9): 12.9 +/− 2.1c %
Disease Severity Intensity ([3]; 15 dpi, rate N/2.5 (g a.i./ha): ADF-16 40, penthiopyrad 80, metconazole 36, tebuconazole 100, control 47.9): 27.5 +/− 2.2b %
Disease Severity Intensity ([3]; 21 dpi, rate N (g a.i./ha): ADF-16 100, penthiopyrad 200, metconazole 90, tebuconazole 250, control 81.0): 70.2 +/− 2.8b %
Disease Severity Intensity ([3]; 21 dpi, rate N/2.5 (g a.i./ha): ADF-16 40, penthiopyrad 80, metconazole 36, tebuconazole 100, control 81.0): 72.0 +/− 3.6b %
Disease Severity Intensity ([3]; 28 dpi, rate N (g a.i./ha): ADF-16 100, penthiopyrad 200, metconazole 90, tebuconazole 250, control 92.2): 90.6 +/− 1.7ab %
Disease Severity Intensity ([3]; 28 dpi, rate N/2.5 (g a.i./ha): ADF-16 40, penthiopyrad 80, metconazole 36, tebuconazole 100, control 92.2): 90.9 +/− 1.6ab %
Efficacy (from AUDPC, percentage of the untreated control) [3, 9]: 32.9%
AUDPC [3, 9]: 908.4 +/− 11.3c
Efficacy (from AUDPC, percentage of the untreated control) [3, 10]: 20.4%
AUDPC [3, 10]: 1076.9 +/− 17.9b
Disease Severity Intensity ([4]; 15 dpi, rate N (g a.i./ha): ADF-16 100, penthiopyrad 200, metconazole 90, tebuconazole 250, control 22.0): 0.0 +/− 0.0b %
Disease Severity Intensity ([4]; 15 dpi, rate N/2.5 (g a.i./ha): ADF-16 40, penthiopyrad 80, metconazole 36, tebuconazole 100, control 22.0): 0.0 +/− 0.0b %
Disease Severity Intensity ([4]; 21 dpi, rate N (g a.i./ha): ADF-16 100, penthiopyrad 200, metconazole 90, tebuconazole 250, control 81.7): 0.0 +/− 0.0c %
Disease Severity Intensity ([4]; 21 dpi, rate N/2.5 (g a.i./ha): ADF-16 40, penthiopyrad 80, metconazole 36, tebuconazole 100, control 81.7): 0.0 +/− 0.0c %
Disease Severity Intensity ([4]; 28 dpi, rate N (g a.i./ha): ADF-16 100, penthiopyrad 200, metconazole 90, tebuconazole 250, control 91.0): 0.0 +/− 0.0f %
Disease Severity Intensity ([4]; 28 dpi, rate N/2.5 (g a.i./ha): ADF-16 40, penthiopyrad 80, metconazole 36, tebuconazole 100, control 91.0): 2.0 +/− 0.8e %
Disease Severity Intensity [5, 7]: No disease
Disease Severity Intensity [5, 8]: No disease
Disease Severity Intensity ([5]; 21 dpi, rate N (g a.i./ha): ADF-16 100, penthiopyrad 200, metconazole 90, tebuconazole 250, control 77.2): 0.3 +/− 0.3e %
Disease Severity Intensity ([5]; 21 dpi, rate N/2.5 (g a.i./ha): ADF-16 40, penthiopyrad 80, metconazole 36, tebuconazole 100, control 77.2): 0.0 +/− 0.0e %
Disease Severity Intensity ([5]; 28 dpi, rate N (g a.i./ha): ADF-16 100, penthiopyrad 200, metconazole 90, tebuconazole 250, control 95.5): 1.2 +/− 0.6g %
Disease Severity Intensity ([5]; 28 dpi, rate N/2.5 (g a.i./ha): ADF-16 40, penthiopyrad 80, metconazole 36, tebuconazole 100, control 95.5): 2.0 +/− 1.4g %
Disease Severity Intensity ([6]; 15 dpi, rate N (g a.i./ha): ADF-16 100, penthiopyrad 200, metconazole 90, tebuconazole 250, control 36.0): 0.0 +/− 0.0b %
Disease Severity Intensity ([6]; 15 dpi, rate N/2.5 (g a.i./ha): ADF-16 40, penthiopyrad 80, metconazole 36, tebuconazole 100, control 36.0): 0.0 +/− 0.0b %
Disease Severity Intensity ([6]; 21 dpi, rate N (g a.i./ha): ADF-16 100, penthiopyrad 200, metconazole 90, tebuconazole 250, control 84.3): 10.9 +/− 2.1e %
Disease Severity Intensity ([6]; 21 dpi, rate N/2.5 (g a.i./ha): ADF-16 40, penthiopyrad 80, metconazole 36, tebuconazole 100, control 84.3): 70.7 +/− 3.3b %
Disease Severity Intensity ([6]; 28 dpi, rate N (g a.i./ha): ADF-16 100, penthiopyrad 200, metconazole 90, tebuconazole 250, control 95.7): 54.9 +/− 3.2d %
Disease Severity Intensity ([6]; 28 dpi, rate N/2.5 (g a.i./ha): ADF-16 40, penthiopyrad 80, metconazole 36, tebuconazole 100, control 95.7): 86.5 +/− 2.1c %
Efficacy (from AUDPC, percentage of the untreated control) [6, 9]: 79.2%
AUDPC [6, 9]: 262.9 ± 12.5 days
Efficacy (from AUDPC, percentage of the untreated control) [6, 10]: 39.5%
AUDPC [6, 10]: 763.1 +/− 4.4b
